In ChEMBL document CHEMBL1141005, “Modulation of PPAR receptor subtype selectivity of the ligands: aliphatic chain vs aromatic ring as a spacer between pharmacophore and the lipophilic moiety” (Bioorg Med Chem Lett, 2008):
Activity calls are given as the source filed them. The calls are words filed in the database; no cut-off is given here.

How the values were obtained:
[1] = biological target: T1, Peroxisome proliferator-activated receptor alpha (Homo sapiens, UniProt Q07869); test: Agonist activity at human PPARalpha transactivation expressed in human HePG2 cells; type: functional, cell-based
T1 sequence (Q07869 whole entry): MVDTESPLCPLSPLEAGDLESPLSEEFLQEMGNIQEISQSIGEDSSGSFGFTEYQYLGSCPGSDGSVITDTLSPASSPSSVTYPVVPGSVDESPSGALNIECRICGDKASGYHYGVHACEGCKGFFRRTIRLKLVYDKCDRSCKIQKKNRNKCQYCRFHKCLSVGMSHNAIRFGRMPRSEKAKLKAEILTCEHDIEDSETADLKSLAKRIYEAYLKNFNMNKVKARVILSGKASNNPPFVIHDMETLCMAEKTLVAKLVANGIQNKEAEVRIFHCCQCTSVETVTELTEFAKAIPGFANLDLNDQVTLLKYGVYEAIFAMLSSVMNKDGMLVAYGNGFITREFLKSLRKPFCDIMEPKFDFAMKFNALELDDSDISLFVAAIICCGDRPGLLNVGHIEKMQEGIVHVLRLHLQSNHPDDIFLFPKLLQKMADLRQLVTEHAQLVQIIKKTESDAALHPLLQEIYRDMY

[2] = biological target: T2, Peroxisome proliferator-activated receptor gamma (Homo sapiens, UniProt P37231); test: Agonist activity at human PPARgamma transactivation expressed in human HePG2 cells
T2 sequence (P37231 whole entry): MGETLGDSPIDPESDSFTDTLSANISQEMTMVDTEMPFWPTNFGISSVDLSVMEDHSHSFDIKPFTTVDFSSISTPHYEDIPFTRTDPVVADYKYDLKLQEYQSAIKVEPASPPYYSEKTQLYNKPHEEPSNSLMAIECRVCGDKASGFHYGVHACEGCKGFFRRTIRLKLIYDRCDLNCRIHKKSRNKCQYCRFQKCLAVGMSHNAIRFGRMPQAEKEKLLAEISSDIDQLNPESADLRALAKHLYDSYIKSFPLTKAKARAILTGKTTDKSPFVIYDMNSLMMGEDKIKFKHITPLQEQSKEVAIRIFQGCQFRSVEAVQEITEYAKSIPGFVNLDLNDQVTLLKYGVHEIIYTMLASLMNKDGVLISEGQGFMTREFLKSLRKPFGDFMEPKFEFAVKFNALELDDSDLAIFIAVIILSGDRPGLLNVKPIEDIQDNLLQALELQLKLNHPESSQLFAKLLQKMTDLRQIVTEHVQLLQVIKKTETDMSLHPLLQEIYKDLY

[3] = biological target: T3, Peroxisome proliferator-activated receptor delta (Homo sapiens) (UniProt Q03181); test: Agonist activity at human PPARdelta transactivation expressed in human HePG2 cells up to 1 uM; type: functional, cell-based
T3 sequence (whole entry): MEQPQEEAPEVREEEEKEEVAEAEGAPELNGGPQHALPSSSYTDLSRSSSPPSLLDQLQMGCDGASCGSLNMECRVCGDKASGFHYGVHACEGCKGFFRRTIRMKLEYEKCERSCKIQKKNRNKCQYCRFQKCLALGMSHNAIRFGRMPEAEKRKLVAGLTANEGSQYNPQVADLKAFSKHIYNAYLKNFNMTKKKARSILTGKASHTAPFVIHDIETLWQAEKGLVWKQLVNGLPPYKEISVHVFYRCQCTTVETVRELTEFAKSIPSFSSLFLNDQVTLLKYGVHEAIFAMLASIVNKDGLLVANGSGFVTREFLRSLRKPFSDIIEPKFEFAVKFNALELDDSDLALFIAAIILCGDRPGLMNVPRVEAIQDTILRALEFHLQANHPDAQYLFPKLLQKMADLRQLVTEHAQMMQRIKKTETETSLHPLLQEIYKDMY

HpG2 = test: Selectivity ratio of EC50 for human PPARgamma receptor to human PPARalpha receptor expressed in human HpG2 cells; type: cell-based
[4] = biological target: T4, Peroxisome proliferator-activated receptor alpha (Homo sapiens) (UniProt Q07869); test: Agonist activity at human PPARalpha transactivation expressed in human HePG2 cells up to1 uM; type: functional, cell-based
T4 sequence (whole entry): T1 sequence (Q07869 whole entry)

[5] = biological target: T5, Peroxisome proliferator-activated receptor gamma (Homo sapiens) (UniProt P37231); test: Agonist activity at human PPARgamma transactivation expressed in human HePG2 cells up to1 uM; type: functional, cell-based
T5 sequence (whole entry): T2 sequence (P37231 whole entry)

Row | SMILES | EC50 [1] [nM] | EC50 [2] [nM] | Activity [3] | Ratio EC50 (HpG2) | Activity [4] | Activity [5]
1 | COc1ccc(OC(=O)N(CCCCCCc2nc(-c3ccc(C)cc3)oc2C)CC(=O)O)cc1 | 34 | 450 | inactive | 13 |  | 
2 | Cc1ccc(-c2nc(CCCCO/N=C(\CCC(=O)O)c3ccccc3)c(C)o2)cc1 | 0.0038 | 430 | inactive | 113000 |  | 
3 | Cc1ccc(-c2nc(CCCCCCO/N=C(/CCC(=O)O)c3ccccc3)c(C)o2)cc1 | 0.1 | 100 | inactive | 1000 |  | 
4 | Cc1oc(-c2ccccc2)nc1COc1ccc(CO/N=C(\CCC(=O)O)c2ccccc2)cc1 [IMIGLITAZAR] | 8 |  | inactive |  |  | 
5 | Cc1ccc(-c2nc(CCCC[C@H]3CO[C@@](C)(C(=O)O)OC3)c(C)o2)cc1 |  | 6850 | inactive |  |  | 
6 | COc1ccc(OC(=O)N(CCCCCc2coc(-c3ccc(C)cc3)n2)CC(=O)O)cc1 | 44 | 560 | inactive | 12 |  | 
7 | COc1ccc(OC(=O)N(CCCCc2nc(-c3ccc(C)cc3)oc2C)CC(=O)O)cc1 |  |  | inactive |  | inactive | inactive
8 | Cc1ccc(-c2nc(CCCCCO/N=C(/CCC(=O)O)c3ccccc3)c(C)o2)cc1 | 2 | 31 | inactive | 15 |  | 
9 | COc1ccc(OC(=O)N(CC(=O)O)Cc2ccc(OCCc3nc(-c4ccccc4)oc3C)cc2)cc1 [MURAGLITAZAR] | 150 |  | inactive |  |  | 
10 | Cc1ccc(-c2nc(COc3ccc(C[C@H]4CO[C@@](C)(C(=O)O)OC4)cc3)c(C)o2)cc1 | 72 |  | inactive | 0.2 |  | 
